This is an account of results in patent US9566341B1, “Compounds including Cox inhibitor moiety and enhanced delivery of active drugs using same” (University of Kentucky Research Foundation, priority 2011, dated 2017).

“Also recorded” adds a separate entry of the source. Where two headings read alike, the source gives them in different places.

A short description of series [1]: Chemical stability in 0.3M acetate buffer pH 5.0 at 32° C. Format: physicochemical. From the text: The chemical stability of the prodrugs to hydrolysis and solvolysis at the appropriate temperatures will be determined by measuring concentrations over time in the buffers and solvents used in the solubility and diffusion studies. Chemical degradation rate constants will be important in distinguishing enzymatic degradation from non-enzymatic degradation. Codrug enzymatic metabolism rate constants can also be determined in skin homogenates, to ascertain if the values are useful in the QSPR multiple regression analysis. The kinetics of codrug enzymatic degradation in skin homogenates will be done using abdominal plastic surgery samples. Enzymatic reaction rates will be determined at several different codrug concentrations. The skin is homogenized (Polytron tissue homogenizer and ground glass homogenizer fitted with a glass pestle) in HEPES-buffered Hanks' balanced salt solution and the supernatant is obtained. The enzymatic hydrolysis rates are determined in the homogenate at 37° C. The codrug and its metabolites will be obtained by solid-phase extraction, or another appropriate extraction method. Naltrexone and any other metabolite formed will be assayed by HPLC and expressed as moles of metabolite per minute per milligram of protein. Protein concentrations in the supernatant will be measured by the Bradford method. Controls containing only codrug and HEPES-buffered Hanks' balanced salt solution at 37° C. will also be monitored to determine non-enzymatic hydrolysis.
Chemical and enzymatic stability was determined for the codrugs. For chemical stability studies, the codrug was put in prewarmed 0.3M acetate buffer pH 5.0 after solubilization in <5% ACN, if required, at 32° C. in an incubator. Samples were withdrawn at regular intervals and injected into the HPLC after appropriate dilutions. Enzymatic stability studies are important for estimation of conversion of codrugs in the plasma. […] All stability data was analyzed using pseudo first order kinetics. […]

Series [2] is described as follows: Enzymatic stability in hairless guinea pig plasma. Format: in vitro ADME. As to conditions: for enzymatic stability half-life in hairless guinea pig plasma: HGP plasma, 37° C., n=3. On the procedure:
Chemical and enzymatic stability was determined for the codrugs. For chemical stability studies, the codrug was put in prewarmed 0.3M acetate buffer pH 5.0 after solubilization in <5% ACN, if required, at 32° C. in an incubator. Samples were withdrawn at regular intervals and injected into the HPLC after appropriate dilutions. Enzymatic stability studies are important for estimation of conversion of codrugs in the plasma. For plasma stability studies prewarmed HGP plasma at 37° C. was spiked with codrug solution and samples were withdrawn at regular intervals. 100 μl of plasma sample was extracted with 1 ml of 1:1 ACN:ethyl acetate, vortexed, centrifuged at 10,000 rpm for 20 minutes on a bench top Eppendorf Mini Spin®. The supernatant was decanted into a glass tube and evaporated under nitrogen. Samples were reconstituted in 100 μl ACN and injected onto the HPLC. All stability data was analyzed using pseudo first order kinetics. All stability studies were carried out at least, in triplicate.

A short description of series [3]: In vitro diffusion study across microneedle-treated full thickness Yucatan miniature pig skin. Format: in vitro ADME. The settings on record: for bioconversion of the codrug in the skin: parent drugs in receiver/skin. The method, then: For all in vitro experiments female Yucatan minipig skin (6 months old) were used. Skin sections were obtained by removing the subcutaneous fatty tissue by scalpel dissection, and were stored at −20° C. A PermeGear flow-through (In-Line, Riegelsville, Pa., USA) diffusion cell system was used for the skin permeation studies.
The skin was pierced 20 times with an array containing 5 MN (i.e., to make a total of 100 individual and non-over lapping piercings) before mounting the skin in the diffusion cell for the treatment group. The insertion of MN into skin was carried out manually by applying gentle finger pressure followed by instantaneous removal. MN's were distributed evenly within the 0.95 cm^2 area of skin and could easily be visualized after each 5 MN insertion, as to prevent reapplication in the same area. Single MN array of 5 were used simply out of ease for the experimental procedure. If any damage to an MN section was observed the section was replaced. […] Untreated skin samples were simply placed in the diffusion cells. Diffusion cells were kept at 32° C. using a circulating water bath. Data were collected using skin from a single pig 3-4 cells for the MN treated formulations.
The physiological receiver solution was water adjusted to pH 7.4 containing 20% ethanol, and the flow rate was adjusted to 1.5 ml/h. Each cell was charged with 0.25 ml of the donor in the donor compartment of the chamber. The diffusion cells were covered with a stopper to prevent evaporation. Samples were collected from the receiver compartment in six-hour increments over 48 h or for the length of the treatment. All samples were stored at 4° C. until analyzed by HPLC.
The in vitro permeation experiments were carried out to determine the transdermal flux of the parent drugs and the codrug, permeation coefficients as well as the concentration of the drug molecules in the skin at the end of the study. For all in vitro experiments Yucatan miniature pig (YP) skin was used. Full thickness skin was obtained by removing the subcutaneous fatty tissue by scalpel dissection, and stored at −20° C. A PermeGear flow-through (In-Line, Riegelsville, Pa., USA) diffusion cell system was used for the skin permeation studies. […] The skin was pierced 20 times with a 5 MN array (making 100 individual and non-over lapping piercings) before mounting the skin in the diffusion cell. MN pores were distributed evenly within the 0.95 cm^2 area of skin. Untreated skin samples were mounted directly onto the diffusion cells. The setup was maintained at 32° C. using a circulating water bath. Data collected using a minimum of 3-4 cells per treatment group. The receiver solution was water alkalified to pH 7.4 containing 20% ethanol at 37° C. Gentamycin sulfate (50 mg/L) was added to the receiver for 7 day studies as an antibacterial agent. The receiver flow rate was adjusted to 1.5 ml/h to maintain skin conditions. Each cell was charged with 0.25 ml of the donor and the diffusion cells were covered with a stopper to prevent evaporation of formulation. Samples were collected at regular increments over 48 hours or for the length of the treatment. Drug was concentrated 10 fold by evaporating 1 ml of the collected sample under nitrogen and reconstituting in 100 μl of ACN for quantification. All samples were stored at 4° C. until analyzed by HPLC. The skin was removed at the end of the study and the treatment area was diced into small pieces using a scalpel after removing all excess drugs from top of the skin. Drug was extracted out by immersing the skin pieces in ACN overnight in a shaker water bath at 32° C. Samples were injected into the HPLC after appropriate dilution for quantitative analysis. The donor was also removed and quantified at the end of the study by direct injection onto HPLC after suitable dilution using ACN. All data was analyzed using Fick's first law of diffusion. […]

Series [4] in a line: Concentration of saturated donor solution. Format: physicochemical. As to conditions: base form; PG:ethanol:water=43:43:14. The method, then:
Solubility studies are carried out by equilibrating large excesses of each drug with the solvent studied. The experiments will be done at skin surface temperature (32° C.). To hasten the attainment of equilibrium, each slurry will be continuously shaken or stirred. Samples will be taken, filtered with an appropriate filter for the solvent, measured with respect to volume, and either assayed directly by HPLC or evaporated to dryness and reconstituted for assay. Binding of the compounds to the filter will be checked to eliminate the possibility of drug adsorption on the filter and/or filter casing. All toxic solvents and other chemicals will be handled with caution, and fume hoods will be used when appropriate.
In vitro experiments. The goal of the first set of in vitro experiments was to estimate flux and skin concentration of the base form of the codrug.

In series [5] the test system is hairless guinea pig micropores. Kind of series: In vivo micropore visualization by gentian violet/India ink staining after MN treatment. The settings on record: codrug gel under occlusion, patch changed at 3.5 days. From the text: The patches were removed at predetermined time points and the site was cleaned with sterile gauze. Gentian violet/India ink was applied as the dyeing agent at the MN treated sites and allowed to dry before excess dye was removed with ethanol and gauze. Both the dyes stain the viable epidermis but not the intact SC. […] The donor was removed from the top of the skin at the end of the study and analyzed by direct injection onto HPLC after suitable dilution using ACN.
All animal experiments were approved by the University of Kentucky IACUC. A proof of concept in vivo experiment was carried out. 4% w/w gels were prepared with the hydrochloride salt form of the codrug. Gels were formulated by dissolving 4% codrug salt in PG: buffer at pH 5.0=10:90 and 3.0% hydroxyethylcellulose (HEC) polymer (required to have a gel formulation). Polymer was dissolved over a 30 minute period to obtain a homogenous gel. The solution was stirred until a viscous gel resulted and then left at room temperature for 1½ to 2 hours to remove bubbles and ensure complete polymerization. The gel was saturated with excess solid and therefore was cloudy. MN treated animals were first cleaned topically with isopropyl alcohol, and 50 MN array was applied twice mutually perpendicular to each other to give a total of 100 pores at each site. 0.3 mL gel doses were applied to the dorsal region of the HGP. After application of the gel the skin was occluded with the occlusive patch and biocclusive tape was applied to prevent evaporation of the formulation. The patch was changed with new formulation at 3.5 days such that more than 50% intact codrug was always present in formulation. […] The patches were removed to obtain data at successive 24 h time intervals.
The patches were removed at predetermined time points and the site was cleaned with sterile gauze. Gentian violet/India ink was applied as the dyeing agent at the MN treated sites and allowed to dry before excess dye was removed with ethanol and gauze. Both the dyes stain the viable epidermis but not the intact SC.

For series [6] the following is noted: in vivo, po, cited from earlier work.
For series [7] the following is noted: cited from earlier work.

Turning to `O=C(Cc1ccccc1Nc1c(Cl)cccc1Cl)Oc1ccc2c3c1O[C@H]1C(=O)CC[C@@]4(O)[C@@H](C2)N(CC2CC2)CC[C@]314` [Compound 2A], in series [1], the “Chemical stability” value was 3.9 ± 0.56 days. Further, in series [2], the “Enzymatic stability” value is reported as 6.4 ± 0.84 min. The entries for the “enzymatic stability half-life in hairless guinea pig plasma” value in series [2], in series [2] (listed as Compound 2U) and in series [2] (listed as codrug) were “around 6 minutes”, 6.4 ± 0.84 min and 6.4 ± 0.84 min, respectively. Further, in series [3], the “diclofenac skin concentration versus effective skin concentration goal of FIG. 5” value is reported as “did not provide that level”. Further, in series [3] (FIG. 6), the “flux of NTX from the codrug relative to diclofenac flux” value is “twice as high”. Further, the “bioconversion of the codrug in the skin” value in series [3] (MN treated skin) is given as “bioconverted completely in the skin”; in series [3] (MN treated skin, listed as Compound 2U), “degraded in the skin to regenerate back the parent drugs”; in series [3] (MN treated skin, listed as codrug), “completely hydrolyzed in the skin; also recorded: degraded in the skin to regenerate back the parent drugs”. In series [3] (base form, saturated donor PG:ethanol:water=43:43:14, MN treated skin, 48 h, n=3), the “steady state flux of naltrexone from the codrug” value is 0.42±0.12 nmol/(cm^2/h). The “steady state flux of diclofenac from the codrug” value in series [3] (base form, saturated donor PG:ethanol:water=43:43:14, MN treated skin, 48 h, n=3, listed as Compound 2U) is reported as 0.19±0.06 nmol/(cm^2/h). Further, the “concentration of saturated donor solution” value in series [4] is 4500 µg/mL. Besides, in series [5], the “time the pores stay open after MN treatment” value was 7 days.
On to `O=C1CC[C@@]2(O)[C@H]3Cc4ccc(O)c5c4[C@@]2(CCN3CC2CC2)[C@H]1O5` [NTX, Naltrexone], for which the oral bioavailability in series [6] is 5-40%; in series [6] (listed as Naltrexone), “five to forty”. The log P (usually the decadic logarithm of the partition coefficient of the neutral form, usually between octanol and water) in series [7] was 1.8.
